Earlier results, collected in patent US8563018B2, “Foamable pesticide compositions” (priority 2009, dated 2013).

Columns and labels:
termites = conditions: in vivo
ants = conditions: in vivo

SMILES: N#Cc1nn(-c2c(Cl)cc(C(F)(F)F)cc2Cl)c(N)c1[S+]([O-])C(F)(F)F (racemic) [Fipronil, (±)-5-amino-1-(2,6-dichloro-α,α,α-trifluoro-p-tolyl)-4-trifluoromethylsulfinylpyrazole-3-carbonitrile]
- dose toxic to termites (termites): 2 nanograms per termite
- dose toxic to ants (ants): about 1 nanogram per ant
